Results as given in patent publication US8575199B2, “Formula (IA″) compounds comprising (piperidin-4-yl)pyridine or (1,2,3,6-tetrahydropyridin-4-4yl) as TRPV1 antagonists” (Purdue Pharma L.P., priority 2007, dated 2013).
Values after ≈ are worked out from the molar mass of the structure shown. Where two headings read alike, the source gives them in different places.

Key:
[1] = Aqueous solubility at pH 6.8 or pH 1.2; type: physicochemical; details: aqueous solution
[2] = molecular target: T1, human recombinant TRPV1 (Homo sapiens, UniProt Q8NER1); test: pH-based assay, Protocol 2 (hpH-CHO), Ca2+ influx by Fura-2 AM/FDSS-3000 in TRPV1/CHO cells; type: cell-based; details: H2SO4 agonist, pH 5.0-5.1, mean ± standard error of the mean (number of trials), read-out: TRPV1 IC50 Potency, Human pH CHO (hpH-CHO)
T1 construct: using primers designed surrounding the complete hTRPV1 open reading frame; expressed in transfected cells; host or cells: CHO-K1 cells stably transfected with pcDNA3.1(-)-hVR1 plasmid
T1 sequence (Q8NER1 whole entry): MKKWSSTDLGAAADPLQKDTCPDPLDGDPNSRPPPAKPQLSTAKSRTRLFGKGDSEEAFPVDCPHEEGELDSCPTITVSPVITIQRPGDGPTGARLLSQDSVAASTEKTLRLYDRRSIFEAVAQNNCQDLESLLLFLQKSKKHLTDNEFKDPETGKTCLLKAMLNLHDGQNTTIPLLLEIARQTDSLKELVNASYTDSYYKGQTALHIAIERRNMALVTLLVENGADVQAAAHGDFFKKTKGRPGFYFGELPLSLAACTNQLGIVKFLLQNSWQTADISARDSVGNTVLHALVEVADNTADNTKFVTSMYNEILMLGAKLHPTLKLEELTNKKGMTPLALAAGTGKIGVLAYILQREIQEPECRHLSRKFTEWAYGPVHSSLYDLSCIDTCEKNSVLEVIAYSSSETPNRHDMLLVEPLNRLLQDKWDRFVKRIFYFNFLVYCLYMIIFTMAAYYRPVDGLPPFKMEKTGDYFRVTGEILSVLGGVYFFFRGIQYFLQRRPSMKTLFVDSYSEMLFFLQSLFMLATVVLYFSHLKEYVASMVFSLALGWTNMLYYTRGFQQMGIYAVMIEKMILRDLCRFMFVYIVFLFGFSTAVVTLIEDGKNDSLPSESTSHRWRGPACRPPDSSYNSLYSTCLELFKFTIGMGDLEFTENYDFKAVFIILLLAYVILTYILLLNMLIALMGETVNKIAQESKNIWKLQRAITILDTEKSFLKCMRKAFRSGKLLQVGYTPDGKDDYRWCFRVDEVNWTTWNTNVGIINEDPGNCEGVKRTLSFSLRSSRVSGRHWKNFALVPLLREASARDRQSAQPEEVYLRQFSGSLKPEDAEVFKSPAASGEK
From the text: For Protocol 2, a Chinese Hamster Ovary cell line (CHO) that has been engineered to constitutively express human recombinant TRPV1 was used (TRPV1/CHO cells). The TRPV1/CHO cell line was generated as described below.
The resulting PCR products were purified from agarose gels using Gel Band Purification Kit (GE Healthcare Bioscience) and were subcloned into pCR-Blunt vector (Invitrogen). The cloned cDNA was fully sequenced using a fluorescent dye-terminator reagent (BigDye Terminator ver3.1 Cycle Sequencing Kit, Applied Biosystems) and ABI Prism 3100 genetic analyzer (Applied Biosystems). The pCR-Blunt vector containing the hTRPV1 cDNA was subjected to restriction digestion with EcoR1. […] The sequence of the cDNA encoding TRPV1 is available at GenBank accession number AJ277028. […]
(5) The Fura-2 fluorescent intensity was monitored at a wavelength of 340 nm and at 380 nm, respectively, at a rate of 0.5 Hz for a total of 240 seconds. […]
(6) Fluorescence intensity ratio refers to the fluorescence intensity at 340 nm over the fluorescence intensity at 380 nm at a particular time point. […]
(7) Maximal signal ratios from each well were calculated as output data using the FDSS-3000 analysis program. Data were analyzed using Excel (Microsoft) and XLfit (idbs) software.

[3] = pH 1.2, simulated gastric fluid, read-out: aqueous solubility at pH 1.2
[4] = pH 6.8, aqueous buffer, read-out: aqueous solubility at pH 6.8

solubility [1, 3] [µM]	solubility [1, 4] [µM]	IC50 [2] [nM]	SMILES
9.3 (≈ 3.9 µg/mL)	1 (≈ 0.42 µg/mL)	–	O=C(Nc1ccc(C(F)(F)F)c(F)c1)N1CCC(F)(c2ncccc2Cl)CC1 [Compound 209]
39.6 (≈ 15.8 µg/mL)	0.8 (≈ 0.32 µg/mL)	–	O=C(Nc1ccc(C(F)(F)F)c(F)c1)N1CC=C(c2ncccc2Cl)CC1 [Compound 213]
9.6 (≈ 3.84 µg/mL)	0.6 (≈ 0.24 µg/mL)	–	O=C(Nc1ccc(C(F)(F)F)c(Cl)c1)N1CC=C(c2ncccc2F)CC1 [Compound 215]
–	–	39.8 ± 2.2	O=C(Nc1ccc(OC(F)(F)F)c(-c2ccccc2)c1)N1CC=C(c2ncc(CO)cc2Cl)CC1 [Compound D3]
–	–	5.3 ± 1	O=C(Nc1ccc(C(F)(F)F)c(Cl)c1)N1CCC(F)(c2ncc([C@H](O)CO)cc2F)CC1 [Compound Q3]
